Measurements reported in PMC12549899 (Nature Communications, 2025).
Changes are numbered by the printed parent chain. Where “and” joins values, the source holds several entries; their conditions need not be identical. Equal values may be shown once.

Key:
DrOTOP1 F277A = molecular target: T1, DrOTOP1 F277A (Danio rerio, UniProt Q7ZWK8, F277A); assay: Whole-cell patch-clamp, inhibition of acid-evoked currents, DrOTOP1 F277A; assay type: cell-based, zebrafish (Danio rerio); conditions: single cells or mean
T1 construct: A previously generated codon-optimized full-length DrOTOP1[8]; (UniProt: Q7ZWK8) construct; expressed in transfected cells; host or cells: HEK-293 (CRL-1573, ATCC)
T1 sequence (Q7ZWK8 1-586 F277A): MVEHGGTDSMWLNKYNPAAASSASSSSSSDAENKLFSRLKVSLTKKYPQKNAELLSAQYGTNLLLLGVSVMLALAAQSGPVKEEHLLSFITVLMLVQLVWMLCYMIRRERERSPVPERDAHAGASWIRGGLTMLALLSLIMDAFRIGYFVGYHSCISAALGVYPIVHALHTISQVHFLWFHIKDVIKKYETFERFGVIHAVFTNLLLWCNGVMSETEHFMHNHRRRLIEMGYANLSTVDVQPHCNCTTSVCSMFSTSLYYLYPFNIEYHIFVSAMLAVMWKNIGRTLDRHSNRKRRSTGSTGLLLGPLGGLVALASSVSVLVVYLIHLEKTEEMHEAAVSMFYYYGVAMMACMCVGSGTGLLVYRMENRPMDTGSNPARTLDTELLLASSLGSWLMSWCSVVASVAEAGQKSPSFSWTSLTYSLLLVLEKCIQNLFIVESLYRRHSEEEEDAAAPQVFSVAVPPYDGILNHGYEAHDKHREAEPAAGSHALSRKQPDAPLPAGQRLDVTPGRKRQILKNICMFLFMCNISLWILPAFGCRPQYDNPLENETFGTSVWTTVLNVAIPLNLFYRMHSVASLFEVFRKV
Source text: (§1) To functionally test the significance of the two binding sites identified by cryo-EM, we generated point mutations of DrOTOP1 using the binding poses and conformational changes observed in DrOTOP1_C2.2 to guide our mutations. As per the binding pose that best fits our cryo-EM density, C2.2 forms the following interactions in the outer site: hydrophobic packing against many non-polar residues W126, G130, M133, L134, F271, F570, and M573, and π-stacking with W532 (Fig. 5A). In addition, C2.2 could potentially form H-bonds with E267, if the sidechain is protonated or a water bridge is present, and with H574 if it moves closer (Fig. 5A). Likewise, C2.36 presents a heterocyclic nitrogen that can potentially form a H-bond with E267, similarly, provided a protonation or water bridge is present (Fig. 5B). In addition, C2.36 forms a T-shaped π-stacking interaction with H574, whose sidechain has rotated 90 degrees (compared to DrOTOP1_apo), presumably to accommodate the interaction (Fig. 5B). […]
(§2) Whole-cell patch-clamp recording was performed as previously described[6],[22],[25]. Recordings were made with an Axopatch 200B amplifier, digitized with a Digidata 1322a 16-bit data acquisition system, acquired with pClamp 8.2 and analyzed with Clampfit 10 (Molecular Devices). […]

DrOTOP1 A388W = molecular target: T2, DrOTOP1 A388W (Danio rerio, UniProt Q7ZWK8, A388W); assay: Whole-cell patch-clamp, inhibition of acid-evoked currents, DrOTOP1 A388W; assay type: cell-based, zebrafish (Danio rerio); conditions: single cells
T2 construct: A previously generated codon-optimized full-length DrOTOP1[8]; (UniProt: Q7ZWK8) construct; expressed in transfected cells; host or cells: HEK-293 (CRL-1573, ATCC)
T2 sequence (Q7ZWK8 1-586 A388W): T1 sequence (Q7ZWK8 1-586 F277A) with A277F, A388W
Source text: as §1, §2

Row | Structure (SMILES) | inhibition at 10 µM (DrOTOP1 F277A) [%] | Inhibition of currents (DrOTOP1 A388W; 100 µM) | inhibition at 100 µM (DrOTOP1 A388W) [%]
1 | C=C(C)COc1ccccc1NC(=O)c1nc[nH]c1C [C2.2] | 76.2 | – | –
2 | O=C(/C(=N\O)c1ccccc1)c1ccccc1 [C11, benzil monoxime] | – | 53.4353% and 72.6918% and 53.0458% and 57.2816% and 61.0959% | 72.4
